Where two headings read alike, the source gives them in different places.

Holding throughout (assay type): in vivo
The target in one test is T1, BK2 (Mus musculus, UniProt P32299).
T1 construct: from tissue; host or cells: live ace2 KO mice, lung elastance read-out
T1 sequence (P32299 1-392): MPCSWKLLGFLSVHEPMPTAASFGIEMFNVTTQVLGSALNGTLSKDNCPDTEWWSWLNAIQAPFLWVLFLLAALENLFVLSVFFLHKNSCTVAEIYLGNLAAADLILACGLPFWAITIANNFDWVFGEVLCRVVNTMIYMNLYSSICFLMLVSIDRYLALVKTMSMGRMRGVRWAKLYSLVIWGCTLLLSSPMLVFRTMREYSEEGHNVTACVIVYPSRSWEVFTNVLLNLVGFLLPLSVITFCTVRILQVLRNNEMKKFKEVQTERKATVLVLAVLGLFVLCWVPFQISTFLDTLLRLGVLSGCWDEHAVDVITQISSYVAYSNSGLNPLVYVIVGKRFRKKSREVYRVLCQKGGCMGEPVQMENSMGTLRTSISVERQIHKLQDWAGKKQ
The experiment in a line: Bradykinin receptor inhibitor study (BK2) in acid aspiration-induced ALI of ace2 KO mice. Particulars: acid-treated ace2 KO mice, 1.5 mg/kg i.p. 30 min before surgical procedures, 3 hrs (FIG. 17). Here is the method: (§1) Murine acid aspiration-induced lung injury model: For acid aspiration-induced ALI, 2.5-3 month old mice were anaesthetized with ketamin (75 mg/kg) and xylazine (20 mg/kg) i.p., tracheostomized and ventilated with a volume control constant flow ventilator (Voltek Enterprises). Volume recruitment manoeuvre (VRM) (25 cmH2O, 3 sec) was performed to standardize volume history and measurements were made as baseline. After intratracheal instillation of HCl (pH=1.5; 2 ml/kg), followed by a VRM (35 cmH2O, 3 seconds), animals were ventilated for 3 hrs (FIO2 1.0). Total PEEP (PEEPt) and plateau pressure (Pplat) were measured at the end of expiratory and inspiratory occlusion, respectively, and elastance was calculated as Pplat minus PEEPt)/VT every 30 minutes during the ventilation periods.
Bradykinin receptors inhibitor studies: Ace2 KO mice (2.5-3 months old) received the BK1 inhibitor (des Arg HOE, Sigma, 1.5 mg/kg), the BK2 inhibitor (HOE 140, Sigma, 1.5 mg/kg), or control vehicle i.p. 30 min before surgical procedures. After HCl instillation, animals were randomized into groups: (1) ace2 KO, acid, vehicle control; (2) ace2 KO, acid, BK1 inhibitor; (3) ace2 KO, acid, BK2 inhibitor. Animals were then ventilated for 3 hrs and analyzed as above.

The next test has as its target T2, AT2R (Mus musculus, UniProt P35374).
T2 construct: from tissue; host or cells: live ace2 KO mice, lung elastance read-out
T2 sequence (P35374 1-363): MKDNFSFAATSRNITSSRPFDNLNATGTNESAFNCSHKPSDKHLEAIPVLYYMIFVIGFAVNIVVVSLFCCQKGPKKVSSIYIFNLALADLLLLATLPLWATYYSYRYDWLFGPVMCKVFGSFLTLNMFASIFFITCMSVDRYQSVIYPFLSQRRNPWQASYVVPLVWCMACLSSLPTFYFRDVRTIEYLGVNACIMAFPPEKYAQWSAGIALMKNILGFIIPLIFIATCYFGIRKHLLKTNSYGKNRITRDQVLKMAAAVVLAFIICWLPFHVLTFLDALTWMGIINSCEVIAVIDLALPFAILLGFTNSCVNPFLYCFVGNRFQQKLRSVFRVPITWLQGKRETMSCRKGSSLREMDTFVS
The experiment in a line: AT2R inhibitor study in acid-induced ALI of ace2 KO mice. Conditions: acid-treated ace2 KO mice, 15 mg/kg i.p., 3 hrs (FIG. 10b). As for the experimental part:
as §1, with “Experimental murine ALI models:” for “Murine acid aspiration-induced lung injury model:”, “Enterprises, Canada).” for “Enterprises).”, “Saline-treated groups served as controls. […] All animals were monitored throughout an 18-hrs recovery period. […] In all experimental ALI models, total” for “Total”, “periods. […]” for “periods.”
AT1R/AT2R inhibitor studies: Mice (2.5-3 months old) received the AT1R inhibitor Losartan (15 mg/kg), the AT2R inhibitor PD123.319 (15 mg/kg), or control vehicle i.p. 30 min before surgical procedures. […] Animals were then ventilated for 3 hrs and analyzed as above.

In test [1] the target is T3, AT1R (Mus musculus, UniProt P29754).
T3 sequence (P29754 whole entry): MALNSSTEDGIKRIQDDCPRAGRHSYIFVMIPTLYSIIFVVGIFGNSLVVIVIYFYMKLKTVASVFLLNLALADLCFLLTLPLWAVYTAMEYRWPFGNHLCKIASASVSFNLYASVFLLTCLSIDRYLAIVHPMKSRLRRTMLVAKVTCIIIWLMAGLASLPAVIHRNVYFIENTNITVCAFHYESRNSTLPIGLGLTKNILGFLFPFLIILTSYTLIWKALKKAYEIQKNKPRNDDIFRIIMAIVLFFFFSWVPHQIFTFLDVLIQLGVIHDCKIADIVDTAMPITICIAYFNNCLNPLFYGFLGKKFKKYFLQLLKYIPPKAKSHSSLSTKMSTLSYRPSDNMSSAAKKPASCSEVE
Test [2] deals with T3, AT1R. As to the kind of experiment: AT1R inhibitor study in acid-induced ALI of ace2 KO mice. Particulars: acid-treated ace2 KO mice. As for the experimental part: as §1, with “Experimental murine ALI models:” for “Murine acid aspiration-induced lung injury model:”, “Enterprises, Canada).” for “Enterprises).”, “Saline-treated groups served as controls. […] All animals were monitored throughout an 18-hrs recovery period. […] In all experimental ALI models, total” for “Total”, “periods. […]” for “periods.”
Assessment of blood oxygenation, pulmonary oedema, and pulmonary vascular permeability: At the end of the experiments, blood samples were obtained from the left heart ventricle and PaO2 was measured (Ciba-Corning Model 248, Bayer, Leverkusen, Germany) to assess arterial blood oxygenation as an indicator for respiratory failure. To assess pulmonary oedemas, the lung wet/dry weight ratios were calculated. […]

As for `NC(N)=NCCC[C@@H](N)C(=O)N[C@@H](CCCN=C(N)N)C(=O)N1CCC[C@H]1C(=O)N1C[C@H](O)C[C@H]1C(=O)NCC(=O)N[C@@H](Cc1cccs1)C(=O)N[C@@H](CO)C(=O)N1Cc2ccccc2C[C@@H]1C(=O)N1[C@H](C(=O)N[C@@H](CCCN=C(N)N)C(=O)O)C[C@@H]2CCCC[C@@H]21` [BK2 inhibitor, DArg[Hyp^3,Thi^5,DTic^7,Oic^8]-bradykinin], the “lung failure assessed by pulmonary elastance” value at BK2 is “improved the lung failure”.
In the case of `Cc1cc(Cn2cnc3c2C[C@@H](C(=O)O)N(C(=O)C(c2ccccc2)c2ccccc2)C3)ccc1N(C)C` [PD123.319], on AT2R, the “severe acute lung injury phenotypes (lung elastance)” value is recorded as “had no apparent effect”.
Regarding `CCCCc1nc(Cl)c(CO)n1Cc1ccc(-c2ccccc2-c2nn[nH]n2)cc1` [Losartan], the “acute severe lung injury (lung elastance)” value is reported as “attenuates SARS Spike-mediated severe acute lung injury” at AT1R [1] (acid plus Spike-Fc challenged WT mice, 15 mg/kg (FIG. 5c)) and “attenuated acute severe lung injury” on AT1R [1] (mouse, in vivo). Further, the “pulmonary oedema (wet to dry weight ratio)” value on AT1R [1] (mouse, in vivo) is recorded as “attenuated pulmonary oedema”. Besides, the “severity of ALI (lung elastance)” value on AT1R [2] (15 mg/kg i.p. 30 min before surgical procedures, 3 hrs (FIG. 10b)) is reported as “attenuated the severity of ALI”. Also, at AT1R [2] (15 mg/kg, 3 hrs (FIG. 16b)), the “acid-induced pulmonary oedema (wet to dry weight ratio)” value is “attenuated acid-induced pulmonary oedema”.

The record behind these values is patent US20080159962A1, “Use of Inhibitors of the Renin-Angiotensin System for the Treatment of Lung Injuries” (priority 2005, published 2008).
